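Test compounds were applied to cells in 96-well plates for 48 hours at 5 doses. At the GI50, growth is halved.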 Active and inactive are the calls of the source. Rule as the data show it: active = GI50 up to about 1.1 µM and inactive = higher.
Key:
Experiment in all cases: NCI-60 cell line screen, 48 h
786-0 = tested on: 786-0
A498 = tested on: A498
A549 = tested on: A549
ACHN = tested on: ACHN
BT-549 = tested on: BT-549
CAKI-1 = tested on: CAKI-1
CCRF-CEM = tested on: CCRF-CEM
COLO 205 = tested on: COLO 205
DU-145 = tested on: DU-145
EKVX = tested on: EKVX
HCC 2998 = tested on: HCC 2998
HCT-116 = tested on: HCT-116
HCT-15 = tested on: HCT-15
HL-60 = tested on: HL-60
HOP-62 = tested on: HOP-62
HOP-92 = tested on: HOP-92
HT-29 = tested on: HT-29
Hs-578T = tested on: Hs-578T
IGROV-1 = tested on: IGROV-1
K562 = tested on: K562
KM12 = tested on: KM12
LOX IMVI = tested on: LOX IMVI
M14 = tested on: M14
MCF7 = tested on: MCF7
MDA-MB-231 = tested on: MDA-MB-231
MDA-MB-435 = tested on: MDA-MB-435
MDA-N = tested on: MDA-N
MOLT-4 = tested on: MOLT-4
Malme-3M = tested on: Malme-3M
NCI-H226 = tested on: NCI-H226
NCI-H23 = tested on: NCI-H23
NCI-H460 = tested on: NCI-H460
NCI-H522 = tested on: NCI-H522
NCI/ADR-RES = tested on: NCI/ADR-RES
OVCAR-3 = tested on: OVCAR-3
OVCAR-4 = tested on: OVCAR-4
OVCAR-5 = tested on: OVCAR-5
OVCAR-8 = tested on: OVCAR-8
PC-3 = tested on: PC-3
RPMI-8226 = tested on: RPMI-8226
RXF 393 = tested on: RXF 393
SF-268 = tested on: SF-268
SF-295 = tested on: SF-295
SF-539 = tested on: SF-539
SK-MEL-28 = tested on: SK-MEL-28
SK-MEL-2 = tested on: SK-MEL-2
SK-MEL-5 = tested on: SK-MEL-5
SK-OV-3 = tested on: SK-OV-3
SN12C = tested on: SN12C
SNB-19 = tested on: SNB-19
SNB-75 = tested on: SNB-75
SR = tested on: SR
SW-620 = tested on: SW-620
T47D = tested on: T47D
TK-10 = tested on: TK-10
U-251 = tested on: U-251
UACC-257 = tested on: UACC-257
UACC-62 = tested on: UACC-62
UO-31 = tested on: UO-31

Cc1cc(C)c(NC(=S)NC(=O)c2ccccc2)cc1C
GI50 (786-0): > 100 µM (inactive)
GI50 (A498): > 100 µM (inactive)
GI50 (A549): > 100 µM (inactive)
GI50 (ACHN): > 100 µM (inactive)
GI50 (BT-549): > 100 µM (inactive)
GI50 (CAKI-1): > 100 µM (inactive)
GI50 (CCRF-CEM): > 100 µM (inactive)
GI50 (COLO 205): > 100 µM (inactive)
GI50 (DU-145): > 100 µM (inactive)
GI50 (EKVX): > 100 µM (inactive)
GI50 (HCC 2998): > 100 µM (inactive)
GI50 (HCT-116): > 100 µM (inactive)
GI50 (HCT-15): 93.1 µM
GI50 (HL-60): > 100 µM (inactive)
GI50 (HOP-62): > 100 µM (inactive)
GI50 (HOP-92): > 100 µM (inactive)
GI50 (HT-29): > 100 µM (inactive)
GI50 (Hs-578T): > 100 µM (inactive)
GI50 (IGROV-1): > 100 µM (inactive)
GI50 (K562): 74 µM (inactive)
GI50 (KM12): > 100 µM (inactive)
GI50 (LOX IMVI): > 100 µM (inactive)
GI50 (M14): > 100 µM (inactive)
GI50 (MCF7): 38.2 µM (inactive)
GI50 (MDA-MB-231): > 100 µM (inactive)
GI50 (MDA-MB-435): 52.8 µM (inactive)
GI50 (MDA-N): 78.9 µM (inactive)
GI50 (MOLT-4): 93.5 µM (inactive)
GI50 (Malme-3M): > 100 µM (inactive)
GI50 (NCI-H226): > 100 µM (inactive)
GI50 (NCI-H23): > 100 µM (inactive)
GI50 (NCI-H460): > 100 µM (inactive)
GI50 (NCI-H522): > 100 µM (inactive)
GI50 (NCI/ADR-RES): > 100 µM (inactive)
GI50 (OVCAR-3): > 100 µM (inactive)
GI50 (OVCAR-4): 61.2 µM (inactive)
GI50 (OVCAR-5): > 100 µM (inactive)
GI50 (OVCAR-8): > 100 µM (inactive)
GI50 (PC-3): 67.3 µM (inactive)
GI50 (RPMI-8226): > 100 µM (inactive)
GI50 (RXF 393): > 100 µM (inactive)
GI50 (SF-268): > 100 µM (inactive)
GI50 (SF-295): 34.4 µM (inactive)
GI50 (SF-539): > 100 µM (inactive)
GI50 (SK-MEL-28): > 100 µM (inactive)
GI50 (SK-MEL-2): > 100 µM (inactive)
GI50 (SK-MEL-5): 25.2 µM (inactive)
GI50 (SK-OV-3): > 100 µM (inactive)
GI50 (SN12C): > 100 µM (inactive)
GI50 (SNB-19): > 100 µM (inactive)
GI50 (SNB-75): > 100 µM (inactive)
GI50 (SR): 37.7 µM (inactive)
GI50 (SW-620): > 100 µM (inactive)
GI50 (T47D): 55.7 µM (inactive)
GI50 (TK-10): > 100 µM (inactive)
GI50 (U-251): 64.1 µM (inactive)
GI50 (UACC-257): 84.7 µM (inactive)
GI50 (UACC-62): > 100 µM (inactive)
GI50 (UO-31): > 100 µM (inactive)

Reference: ChEMBL document CHEMBL1201862, “PubChem BioAssay data set” (2004)
